We go through 3 molecules from patent US7001619B2, “Hepatocurative effect of emblica officinalis against CYP 450 bio-activation hepatotoxicity of drugs” (Council of Scientific and Industrial Research, priority 2002, dated 2006).

Data set [1] deals with hepatotoxicity produced by galactosamine. Put plainly: Hepatotoxicity produced by galactosamine (not dependent on CYP 450 bioactivation), LDH and GPT leakage. To be noted: galactosamine alone. Format: in vivo.
In data set [2] the test system is hepatotoxicity produced by paracetamol. Put plainly: Hepatotoxicity produced by paracetamol (CYP 450 bioactivation), LDH and GPT release in serum. To be noted: paracetamol alone. Format: in vivo.
In the next data set the target is T1, CYP 450 1A1 (Homo sapiens, UniProt P04798).
T1 sequence (P04798 1-512): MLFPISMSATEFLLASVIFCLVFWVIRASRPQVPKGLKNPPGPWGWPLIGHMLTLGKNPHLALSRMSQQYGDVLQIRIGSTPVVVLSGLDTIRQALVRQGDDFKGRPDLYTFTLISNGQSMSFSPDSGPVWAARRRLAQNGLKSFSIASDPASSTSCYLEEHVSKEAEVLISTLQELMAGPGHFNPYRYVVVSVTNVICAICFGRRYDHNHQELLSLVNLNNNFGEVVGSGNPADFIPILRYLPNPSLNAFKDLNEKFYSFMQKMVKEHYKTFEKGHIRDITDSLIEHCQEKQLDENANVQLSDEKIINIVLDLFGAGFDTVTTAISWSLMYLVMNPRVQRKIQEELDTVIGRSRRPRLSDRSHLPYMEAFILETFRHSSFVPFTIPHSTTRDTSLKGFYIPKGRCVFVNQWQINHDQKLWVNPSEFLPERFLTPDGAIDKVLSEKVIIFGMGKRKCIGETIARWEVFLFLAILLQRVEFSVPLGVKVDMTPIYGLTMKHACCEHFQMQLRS
The note with it: cited from earlier work.

Each structure is given as a SMILES string.

For `N[C@H]1C(O)O[C@H](CO)[C@H](O)[C@@H]1O` (stereo partly drawn) [galactosamine], in data set [1], the Toxicity is on record as 93%.

Take `CC(=O)Nc1ccc(O)cc1` [paracetamol]: the Toxicity in data set [2] is 93%.

`O=C(/C=C/C=C/c1ccc2c(c1)OCO2)N1CCCCC1` [piperine]: on CYP 450 1A1, the “inhibition of CYP 450 1A1 (in words)” value is on record as “specific inhibitor of CYP 450 1A1”.
